Where “and” joins values, the source holds several entries; their conditions need not be identical. Equal values may be shown once.
Test system: Female Balb/c mice
Test: Adjuvanticity of lipids: serum anti-KLH IgA, IgG, IgM ELISA (Example 7)
Assay type: in vivo
Details: for Day 7 Results IgA, score as multiples of the control response / Day 7 Results IgG, score as multiples of the control response / Day 7 Results IgM, score as multiples of the control response: serum day 7 after booster; for Day 7 Results IgA, score as multiples of the control response: 5 μl lipid + 45 μl saline + 50 μl KLH (2 mg/ml), week 0 and week 2; for Day 7 Results IgA, score as multiples of the control response / Day 7 Results IgG, score as multiples of the control response / Day 7 Results IgM, score as multiples of the control response / Day 21 Results IgA, score as multiples of the control response / Day 21 Results IgG, score as multiples of the control response / Day 21 Results IgM, score as multiples of the control response: control KLH + Saline = 1; for Day 21 Results IgA, score as multiples of the control response / Day 21 Results IgG, score as multiples of the control response / Day 21 Results IgM, score as multiples of the control response: serum day 21 after booster; for Ranking Total: sum of the six IgA, IgG, IgM scores of day 7 and day 21, control KLH + Saline = 6
Method: The objective of this study was to investigate the adjuvanticity of 19 different lipids.
Female Balb/c mice, 6-8 weeks and weighing about 20-22 gms were used and maintained on a normal mouse diet throughout the study.
There were 22 groups of mice marked alphabetically from A-V. Group A (8 mice) was the negative control (KLH+Saline), Group B (8 mice) was the positive control (KLH+IFA). Groups C-V were the experimental groups containing 6 mice each. 100 μl of antigen preparation comprising of 5 μl lipid+45 μl saline+50 μl (2 mg/ml KLH) was administered to 20 groups of 6 mice each, on week 0 followed by a boost on week 2.
On day 7 and day 21 after the booster dose, the mice were tail bled, the serum separated, aliquoted and stored at 4° C.
The specific anti-KLH IgG and IgM antibody content of each individual serum sample was determined in an established ELISA assay and standardised against a positive control antiserum obtained by hyperimmunisation of mice with KLH (100 μg) in Freund's incomplete adjuvant. Plates were coated with KLH at 2 μg/ml and incubated with four twofold dilutions of samples (100 μl) at 37° C. for 2 hours. The initial dilution of serum samples was 1:50 for IgA assay and 1:100 for IgG and IgM assays. […] IgA and IgM were used at 1:1000 and IgG at 1:2000 for 2 hours at 37° C. The results were expressed as antibody units calculated from the standard curve obtained from pooled immune mouse serum given an arbitrary antibody value of 100,000 IgA units/ml and 1×10^6 IgG and IgM units/ml. The standard curve was diluted from 1:100 to 1:3200 for IgA, 1:4000 to 1:256,000 for IgG and 1:1000 to 1:32000 for IgM samples. The value for each sample dilution falling on standard curve was calculated and the mean taken as the value for the sample.
Results are given in the form of histograms (FIGS. 9 to 14), plotting the Ig response (units/ml) against the trial grouping. […] The number signifies multiples of the control response.

Compound | Day 7 Results IgA, score as multiples of the control response | Day 7 Results IgG, score as multiples of the control response | Day 7 Results IgM, score as multiples of the control response | Day 21 Results IgA, score as multiples of the control response | Day 21 Results IgG, score as multiples of the control response | Day 21 Results IgM, score as multiples of the control response | Ranking Total | Ranking Total (listed as TpaL)
CCCCCCCCCCCCCCCCCC(=O)OC[C@H](COP(=O)(O)OCCN)OC(=O)CCCCCCCCCCCCCCCCC [PES, L-α-Phosphatidylethanolamine, distearoyl] | 15 | 6 | 1 | 2 | 7 | 1 | 32 | 
CCCCCCCCCCCCCCCC(=O)OCC(COC(=O)CCCCCCCCCCCCCCC)OC(=O)CCCCCCCCCCCCCCC [TPaL, Tripalmitin] | 3 | 4 | 1 | 1 | 6 | 1 | 16 | 15
CCCCCCCCCCCCCC(=O)OCC(COP(=O)([O-])OCC[N+](C)(C)C)OC(=O)CCCCCCCCCCCCC (racemic) [PCM, DL-α-Phosphatidylcholine, dimyristoyl] | 4 | 2 | 1 | 1 | 3 | 1 | 12 | 
CCCCCCCCCCCCCC(=O)OC[C@H](COP(=O)(O)O)OC(=O)CCCCCCCCCCCCC [PAM, L-α-Phosphatidicacid, dimyristoyl] | 4 | 5 | 1 | 1 | 6 | 1 | 18 | 
CCCCCCCCCCCCCC(=O)OC[C@H](COP(=O)(O)OCCN)OC(=O)CCCCCCCCCCCCC [PEM, L-α-Phosphatidylethanolamine, dimyristoyl] | 17 | 7 | 1 | 2 | 6 | 2 | 35 | 
CCCCCCCCCCCCCCCCC(=O)OC[C@H](COP(=O)([O-])OCC[N+](C)(C)C)OC(=O)CCCCCCCCCCCCCCCC [PCH, L-α-Phosphatidylcholine, diheptadecanoyl] | 18 | 10 | 1 | 2 | 10 | 2 | 43 | 
CCCCCCCCCCCCC/C=C/[C@@H](O)[C@H](CO)NC(=O)CCCCCCCCCCCCCCC [PS, N-Palmitoyl-d-sphigosine] | 35 | 3 | 2 | 4 | 19 | 1 | 64 | 
CCCCCCCCCCCCCCCCC(=O)OC[C@H](COP(=O)(O)O)OC(=O)CCCCCCCCCCCCCCCC [PAH, L-α-Phosphatidicacid, diheptadecanoyl] | 5 | 4 | 2 | 2 | 6 | 2 | 21 | 
CCCCCCCCCCCCCCCCC(=O)OC[C@H](COP(=O)(O)OCCN)OC(=O)CCCCCCCCCCCCCCCC [PEH, L-α-Phosphatidylethanolamine, diheptadecanoyl] | 4 | 12 | 2 | 2 | 7 | 1 | 28 | 
CCCCCCCCCCCCCCCCCC(=O)OCC(COC(=O)CCCCCCCCCCCCC)OC(=O)CCCCCCCCCCCCCCCCC (racemic) [DSM, 1,2 Distearloyl-3-myristoyl-rac-glycerol] | 26 | 4 | 4 | 3 | 5 | 3 | 45 | 
CCCCCCCCCCCCCCCCCC(=O)OCC(COC(=O)CCCCCCCCCCCCCCC)OC(=O)CCCCCCCCCCCCCCCCC (racemic) [DSP, 1,2 Distearoyl-3-palmitoyl-rac-glycerol] | 15 | 7 | 5 | 3 | 8 | 2 | 39 and 40 | 
CCCCCCCCCCCCCCCC(=O)OCC(COC(=O)CCCCCCCCCCCCC)OC(=O)CCCCCCCCCCCCCCC (racemic) [DPM, 1,2 Diplamitoyl-3-myristoyl-rac-glycerol] | 16 | 3 | 1 | 2 | 7 | 2 | 31 | 
CCCCCCCCCCCCCCC(=O)OC[C@H](COP(=O)([O-])OCC[N+](C)(C)C)OC(=O)CCCCCCCCCCCCCC [PCP, L-α-Phosphatidylcholine, dipentadecanoyl] | 9 | 5 | 2 | 2 | 3 | 1 | 22 | 
CCCCCCCCCCCCCCCC(=O)OCC(COP(=O)(O)OC[C@H](N)C(=O)O)OC(=O)CCCCCCCCCCCCCCC (mixture of isomers) [PSP, DL-α-Phosphatidyl-L-serine, dipalmitoyl] | 47 | 2 | 2 | 3 | 14 | 2 | 70 | 
CCCCCCCCCCCCCC(=O)OCC(COC(=O)CCCCCCCCCCCCC)OC(=O)CCCCCCCCCCCCC [TM, Trymyristin] | 6 | 4 | 1 | 1 | 3 | 1 | 17 and 16 | 
CCCCCCCCCCCCCCCC(=O)OCC(COP(=O)(O)OCCN)OC(=O)CCCCCCCCCCCCCCC (racemic) [PEP, DL-α-Phosphatidylethanolamine, dipalmitoyl] | 9 | 8 | 2 | 2 | 17 | 1 | 40 and 39 | 
CCCCCCCCCCCCCCCCCC(=O)OCC(COP(=O)([O-])OCC[N+](C)(C)C)OC(=O)CCCCCCCCCCCCCCCCC (racemic) [PCS, DL-α-Phosphatidylcholine, distearoyl] | 22 | 8 | 2 | 2 | 13 | 2 | 49 | 
